Measured values reported in PMC4863635, “Radicicol-Mediated Inhibition of Topoisomerase VIB-VIA Activity of the Human Malaria Parasite Plasmodium falciparum” (mSphere, 2016).

Columns and labels:
[1] = biological target: T1, PfTopoVIB (measured as PfTopoVIB-VIA complex) (Plasmodium falciparum, UniProt Q8I5N7+Q8ID53); assay: kDNA decatenation gel assay with yeast cell extract expressing PfTopoVIB-VIA; format: biochemical
T1 construct: gene PF3D7_1365600; full-length Myc-tagged PfTopoVIB co-expressed with Flag-tagged PfTopoVIA in S. cerevisiae, cell-free extract; with PfTopoVIA (PF3D7_1217100.1)

[2] = biological target: T2, PfTopoVIB (topoisomerase VIB subunit of PfTopoVI) (Plasmodium falciparum, UniProt Q8ID53); assay: as above; format: biochemical
T2 construct: gene PF3D7_1365600; full-length Myc-tagged PfTopoVIB co-expressed with Flag-tagged PfTopoVIA in S. cerevisiae, cell-free extract; with PfTopoVIA (PF3D7_1217100.1)
T2 sequence (Q8ID53 1-561): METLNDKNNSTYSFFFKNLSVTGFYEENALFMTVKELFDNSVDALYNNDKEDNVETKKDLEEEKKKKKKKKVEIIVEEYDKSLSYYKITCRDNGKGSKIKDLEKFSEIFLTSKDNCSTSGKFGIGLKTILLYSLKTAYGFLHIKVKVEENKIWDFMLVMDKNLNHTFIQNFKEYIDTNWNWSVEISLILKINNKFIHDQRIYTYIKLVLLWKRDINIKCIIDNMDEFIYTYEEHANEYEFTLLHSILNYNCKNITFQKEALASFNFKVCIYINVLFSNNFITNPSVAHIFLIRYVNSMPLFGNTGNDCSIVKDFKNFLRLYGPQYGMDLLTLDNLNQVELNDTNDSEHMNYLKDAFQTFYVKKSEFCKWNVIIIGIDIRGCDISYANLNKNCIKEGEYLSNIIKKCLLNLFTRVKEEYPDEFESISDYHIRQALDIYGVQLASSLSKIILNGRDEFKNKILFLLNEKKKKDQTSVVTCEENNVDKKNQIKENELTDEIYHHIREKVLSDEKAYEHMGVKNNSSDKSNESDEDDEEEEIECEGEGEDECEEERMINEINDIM
T2 sequence (Q8I5N7 1-327 partner): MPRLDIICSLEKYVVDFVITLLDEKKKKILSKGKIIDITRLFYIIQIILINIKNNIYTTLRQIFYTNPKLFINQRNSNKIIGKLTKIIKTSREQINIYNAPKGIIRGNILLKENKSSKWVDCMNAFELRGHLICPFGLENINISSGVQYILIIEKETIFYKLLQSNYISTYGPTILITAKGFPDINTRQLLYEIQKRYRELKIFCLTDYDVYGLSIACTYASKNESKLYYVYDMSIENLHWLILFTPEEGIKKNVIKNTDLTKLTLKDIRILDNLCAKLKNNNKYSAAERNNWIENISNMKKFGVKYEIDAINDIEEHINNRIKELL

Row | Structure (SMILES) | inhibition at 10 µM [1] [%] | IC50 [2] [µM]
1 | COc1cc([C@@H]2c3cc4c(cc3[C@@H](O[C@@H]3O[C@@H]5CO[C@@H](C)O[C@H]5[C@H](O)[C@H]3O)[C@H]3COC(=O)[C@H]23)OCO4)cc(OC)c1O [etoposide] | > 80 | –
2 | C[C@@H]1C[C@H]2O[C@@H]2/C=C\C=C\C(=O)Cc2c(Cl)c(O)cc(O)c2C(=O)O1 [radicicol] | – | ~80
